# System: SEM cells
# Experiment: cell viability relative to DMSO control; higher = less cytotoxic
# Settings: 48 h
# Method in brief: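 NOMO1 or SEM (500 cells/well) or P12-Ichikawa (1000 cells/well) leukemia cells were adapted for at least four passages in each medium. They were seeded in 1536-well plates (5 μl) and pin-dosed with library compounds in DMSO over an 11-point threefold series, 47 μM to 0.79 nM. CellTiter-Glo One luminescence was read after 48 h at 37°C. Viability is the per-plate percentage relative to DMSO wells, with cell-free wells as background.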
# [1] = RPMI 5 mM glucose + 10% FBS, 0.000781 µM
# [2] = RPMI 5 mM glucose + 10% FBS, 0.00234 µM
# [3] = RPMI 5 mM glucose + 10% FBS, 0.00702 µM
# [4] = RPMI 5 mM glucose + 10% FBS, 0.0211 µM
# [5] = RPMI 5 mM glucose + 10% FBS, 0.0632 µM
# [6] = RPMI 5 mM glucose + 10% FBS, 0.19 µM
# [7] = RPMI 5 mM glucose + 10% FBS, 0.569 µM
# [8] = RPMI 5 mM glucose + 10% FBS, 1.71 µM
# [9] = RPMI 5 mM glucose + 10% FBS, 5.12 µM
# [10] = RPMI 5 mM glucose + 10% FBS, 15.4 µM
# [11] = RPMI 5 mM glucose + 10% FBS, 46.1 µM
# [12] = RPMI 5 mM glucose + 10% dialyzed FBS, 0.000781 µM
# [13] = RPMI 5 mM glucose + 10% dialyzed FBS, 0.00234 µM
# [14] = RPMI 5 mM glucose + 10% dialyzed FBS, 0.00702 µM
# [15] = RPMI 5 mM glucose + 10% dialyzed FBS, 0.0211 µM
# [16] = RPMI 5 mM glucose + 10% dialyzed FBS, 0.0632 µM
# [17] = RPMI 5 mM glucose + 10% dialyzed FBS, 0.19 µM
# [18] = RPMI 5 mM glucose + 10% dialyzed FBS, 0.569 µM
# [19] = RPMI 5 mM glucose + 10% dialyzed FBS, 1.71 µM
# [20] = RPMI 5 mM glucose + 10% dialyzed FBS, 5.12 µM
# [21] = RPMI 5 mM glucose + 10% dialyzed FBS, 15.4 µM
# [22] = RPMI 5 mM glucose + 10% dialyzed FBS, 46.1 µM
# [23] = HPLM + 10% dialyzed FBS, 0.000781 µM
# [24] = HPLM + 10% dialyzed FBS, 0.00234 µM
# [25] = HPLM + 10% dialyzed FBS, 0.00702 µM
# [26] = HPLM + 10% dialyzed FBS, 0.0211 µM
# [27] = HPLM + 10% dialyzed FBS, 0.0632 µM
# [28] = HPLM + 10% dialyzed FBS, 0.19 µM
# [29] = HPLM + 10% dialyzed FBS, 0.569 µM
# [30] = HPLM + 10% dialyzed FBS, 1.71 µM
# [31] = HPLM + 10% dialyzed FBS, 5.12 µM
# [32] = HPLM + 10% dialyzed FBS, 15.4 µM
# [33] = HPLM + 10% dialyzed FBS, 46.1 µM
Structure (SMILES),cell viability [1] [%],cell viability [2] [%],cell viability [3] [%],cell viability [4] [%],cell viability [5] [%],cell viability [6] [%],cell viability [7] [%],cell viability [8] [%],cell viability [9] [%],cell viability [10] [%],cell viability [11] [%],cell viability [12] [%],cell viability [13] [%],cell viability [14] [%],cell viability [15] [%],cell viability [16] [%],cell viability [17] [%],cell viability [18] [%],cell viability [19] [%],cell viability [20] [%],cell viability [21] [%],cell viability [22] [%],cell viability [23] [%],cell viability [24] [%],cell viability [25] [%],cell viability [26] [%],cell viability [27] [%],cell viability [28] [%],cell viability [29] [%],cell viability [30] [%],cell viability [31] [%],cell viability [32] [%],cell viability [33] [%]
C[S+](=O)([O-])c1cccc(CNc2nc(Nc3ccc4c(c3)CCC(=O)N4)ncc2C(F)(F)F)c1,112,126,119,127,105,125,109,71.5,63.1,30.6,8.79,111,114,98.4,110,101,94.9,87.3,74.4,49.9,20.5,4.38,,,,,,,,,,,
N[S+](=O)([O-])c1cccc2c1C(=O)c1cccc(O)c1C2=O,95.8,96.3,102,68.9,94.7,83.2,51.1,44.2,21.9,4.54,3.13,89.4,102,96.1,62.1,95.1,70,40.8,33.3,18.3,24.5,3.78,84.4,95.8,98.9,84.2,91.8,91.5,61.6,59.9,53.7,44.1,3.56
CN1C(=O)C[C@H](C(=O)N[C@@H](Cc2cnc[nH]2)C(=O)N2CCC[C@H]2C(N)=O)NC1=O,,,,,,,,,,,,104,118,120,122,105,112,104,103,104,98.1,50.1,117,108,142,121,111,127,122,120,116,97.4,74.3
CN(C)c1nc(Cc2ccc(NC(=O)c3ccc4ccccc4c3)cc2)nc(Cl)c1CC(=O)O,110,116,127,108,107,110,110,93.8,107,102,105,119,115,136,122,126,108,112,107,111,137,108,120,114,112,116,109,111,138,113,105,110,105
Oc1cccc(-c2nc(N3CCOCC3)c3oc4ncccc4c3n2)c1,102,102,120,106,93.3,77.9,58.4,60.9,8.23,6.63,4.34,,,,,,,,,,,,108,96.3,102,99.1,92.6,80.7,54.8,54.5,61.5,57.3,5.23

# From the supplement of paper PMC11451515
